Results as given in US12409171B2, “Pharmaceutically active pyrazolo-pyridone modulators of DCN1/2-mediated cullin neddylation” (UNIVERSITY OF KENTUCKY RESEARCH FOUNDATION, priority 2019, dated 2025).

These compounds were tested against DCN1 (Homo sapiens (Human), UniProt Q96GG9) (assay: TR-FRET binding assay (biotin-DCN1 / Ac-UBE2M12-AlexaFluor488)). Conditions: mean ± SD (n); read-out: DCN1_TRFRET Mean EC50.
Description: • IC50 values were generated using our TR-FRET binding assay and are represented as the mean of three replicates with errors reported as the standard deviation.
The assay cocktail was then incubated for 1 h at room temperature and distributed using a WellMate instrument (Matrix). Compounds to be screened were added to assay plates from DMSO stock solutions by pin transfer using 50SS pins (V&P Scientific). […] All compounds were tested in triplicate or more.

DCN1, sequence (Q96GG9 whole entry): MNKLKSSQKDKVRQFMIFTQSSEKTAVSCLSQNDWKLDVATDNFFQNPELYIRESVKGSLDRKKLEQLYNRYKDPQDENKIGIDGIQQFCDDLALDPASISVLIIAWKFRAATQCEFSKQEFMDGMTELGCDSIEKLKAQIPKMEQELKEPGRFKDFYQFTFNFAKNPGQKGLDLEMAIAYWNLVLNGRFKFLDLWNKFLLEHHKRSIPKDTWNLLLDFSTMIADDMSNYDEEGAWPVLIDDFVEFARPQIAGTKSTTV

CCN1C(=O)[C@@H](NC(=O)c2cccc(C)c2)[C@@H](c2ccc(F)cc2)c2c(CO)nn(-c3ccccc3)c21 [RG-0008880, N-[(4S,5S)-7-ethyl-4-(4-fluorophenyl)-3-(hydroxymethyl)-6-oxo-1-phenyl-1H,4H,5H,6H,7H-pyrazolo[3,4-b]pyridin-5-yl]-3-methylbenzamide] and CCN1C(=O)[C@@H](NC(=O)c2cccc(C)c2)[C@@H](c2ccc(F)cc2)c2c(CN)nn(-c3ccccc3)c21 [RG-0009512, N-[(4S,5S)-3-(aminomethyl)-7-ethyl-4-(4-fluorophenyl)-6-oxo-1-phenyl-1H,4H,5H,6H,7H-pyrazolo[3,4-b]pyridin-5-yl]-3-methylbenzamide] are within error of each other in EC50: 173 ± 29.7 nM for the first, 171 ± 17.9 nM for the second.

First: Cc1nn(-c2ccccc2)c2c1[C@H](c1ccc(F)cc1)[C@H](NC(=O)c1cccc(C(F)(F)F)c1)C(=O)N2C [RG-0008885, N-[(4S,5S)-4-(4-fluorophenyl)-3,7-dimethyl-6-oxo-1-phenyl-1H,4H,5H,6H,7H-pyrazolo[3,4-b]pyridin-5-yl]-3-(trifluoromethyl)benzamide]
Second: CC(=O)NCN1C(=O)[C@@H](NC(=O)c2cccc(C(F)(F)F)c2)[C@@H](c2ccc(F)cc2)c2c(C)nn(-c3ccccc3)c21 [RG-0013840, N-[(4S,5S)-7-(acetamidomethyl)-4-(4-fluorophenyl)-3-methyl-6-oxo-1-phenyl-1H,4H,5H,6H,7H-pyrazolo[3,4-b]pyridin-5-yl]-3-(trifluoromethyl)benzamide]
The EC50 of the first is lower: 943 ± 86.3 nM for the first, greater than 36500 nM for the second. The first is the more potent here.

Cc1nn(-c2ccccc2)c2c1[C@H](c1ccc(F)cc1)[C@H](N(C)C(=O)c1cccc(C(F)(F)F)c1)C(=O)N2C [RG-0008886, N-[(4S,5S)-4-(4-fluorophenyl)-3,7-dimethyl-6-oxo-1-phenyl-1H,4H,5H,6H,7H-pyrazolo[3,4-b]pyridin-5-yl]-N-methyl-3-(trifluoromethyl)benzamide] and CCCN1C(=O)[C@@H](N(CCC)C(=O)c2cccc(C(F)(F)F)c2)[C@@H](c2ccc(F)cc2)c2c(C)nn(-c3ccccc3)c21 [RG-0009516, N-[(4S,5S)-4-(4-fluorophenyl)-3-methyl-6-oxo-1-phenyl-7-propyl-1H,4H,5H,6H,7H-pyrazolo[3,4-b]pyridin-5-yl]-N-propyl-3-(trifluoromethyl)benzamide] cannot be ordered by EC50: greater than 36500 nM for the first, greater than 36500 nM for the second.

Going from CCN1C(=O)[C@@H](N(CC)C(=O)c2cccc(C)c2)[C@@H](c2ccc(F)cc2)c2c(C)nn(-c3ccccc3)c21 [RG-0009505, N-ethyl-N-[(4S,5S)-7-ethyl-4-(4-fluorophenyl)-3-methyl-6-oxo-1-phenyl-1H,4H,5H,6H,7H-pyrazolo[3,4-b]pyridin-5-yl]-3-methylbenzamide] to CCN1C(=O)[C@@H](NC(=O)c2cccc(Br)c2)[C@@H](c2ccc(F)cc2)c2c(C)nn(-c3ccccc3)c21 [RG-0013061, 3-bromo-N-[(4S,5S)-7-ethyl-4-(4-fluorophenyl)-3-methyl-6-oxo-1-phenyl-1H,4H,5H,6H,7H-pyrazolo[3,4-b]pyridin-5-yl]benzamide], the EC50 falls from 2620 ± 404 nM to 485 ± 41.1 nM (5.4-fold). The second is the more potent here.

Cc1cccc(C(=O)N[C@@H]2CNc3c(c(C)nn3-c3ccccc3)[C@@H]2c2ccc(F)cc2)c1 [RG-0009506, N-[(4S,5S)-4-(4-fluorophenyl)-3-methyl-1-phenyl-1H,4H,5H,6H,7H-pyrazolo[3,4-b]pyridin-5-yl]-3-methylbenzamide] and CCN1C[C@@H](NC(=O)c2cccc(C)c2)[C@@H](c2ccc(F)cc2)c2c(C)nn(-c3ccccc3)c21 [RG-0009507, N-[(4S,5S)-7-ethyl-4-(4-fluorophenyl)-3-methyl-1-phenyl-1H,4H,5H,6H,7H-pyrazolo[3,4-b]pyridin-5-yl]-3-methylbenzamide] cannot be ordered by EC50: greater than 36500 nM for the first, greater than 36500 nM for the second.

CC(=O)CN1C(=O)[C@@H](NC(=O)c2cccc(C)c2)[C@@H](c2ccc(F)cc2)c2c(C)nn(-c3ccccc3)c21 [RG-0009508, N-[(4S,5S)-4-(4-fluorophenyl)-3-methyl-6-oxo-7-(2-oxopropyl)-1-phenyl-1H,4H,5H,6H,7H-pyrazolo[3,4-b]pyridin-5-yl]-3-methylbenzamide] and Cc1cccc(C(=O)N[C@@H]2C(=O)N(CC(F)(F)F)c3c(c(C)nn3-c3ccccc3)[C@@H]2c2ccc(F)cc2)c1 [RG-0009509, N-[(4S,5S)-4-(4-fluorophenyl)-3-methyl-6-oxo-1-phenyl-7-(2,2,2-trifluoroethyl)-1H,4H,5H,6H,7H-pyrazolo[3,4-b]pyridin-5-yl]-3-methylbenzamide] are within error of each other in EC50: 7050 ± 1670 nM for the first, 7000 ± 1710 nM for the second.

Compared with CCN1C(=O)[C@@H](NC(=O)c2cccc(C)c2)[C@@H](c2ccc(F)nc2)c2c(C)nn(-c3ccccc3)c21 [RG-0009513, N-[(4S,5S)-7-ethyl-4-(6-fluoropyridin-3-yl)-3-methyl-6-oxo-1-phenyl-1H,4H,5H,6H,7H-pyrazolo[3,4-b]pyridin-5-yl]-3-methylbenzamide], CCN1C(=O)[C@@H](NC(=O)c2cccc(I)c2)[C@@H](c2ccc(F)cc2)c2c(C)nn(-c3ccccc3)c21 [RG-0013060, N-[(4S,5S)-7-ethyl-4-(4-fluorophenyl)-3-methyl-6-oxo-1-phenyl-1H,4H,5H,6H,7H-pyrazolo[3,4-b]pyridin-5-yl]-3-iodobenzamide] is 1.8-fold higher in EC50: 255 ± 28.2 nM for the first, 461 ± 29.4 nM for the second. The first is the more potent here.

Compared with CCOC1=Nc2c(c(C)nn2-c2ccccc2)[C@H](c2ccc(F)cc2)[C@@H]1NC(=O)c1cccc(C(F)(F)F)c1 [RG-0009518, N-[(4S,5S)-6-ethoxy-4-(4-fluorophenyl)-3-methyl-1-phenyl-1H,4H,5H-pyrazolo[3,4-b]pyridin-5-yl]-3-(trifluoromethyl)benzamide], COC(=O)CN1C(=O)[C@@H](NC(=O)c2cccc(C(F)(F)F)c2)[C@@H](c2ccc(F)cc2)c2c(C)nn(-c3ccccc3)c21 [RG-0013841, methyl 2-[(4S,5S)-4-(4-fluorophenyl)-3-methyl-6-oxo-1-phenyl-5-[3-(trifluoromethyl)benzamido]-1H,4H,5H,6H,7H-pyrazolo[3,4-b]pyridin-7-yl]acetate] is lower in EC50: greater than 36500 nM for the first, 5540 ± 1080 nM for the second.

Cc1nn(-c2ccccc2)c2c1[C@H](c1ccc(F)cc1)[C@H](NC(=O)c1cccc(C(F)(F)F)c1)C(=O)N2C1CCC1 [RG-0013050, N-[(4S,5S)-7-cyclobutyl-4-(4-fluorophenyl)-3-methyl-6-oxo-1-phenyl-1H,4H,5H,6H,7H-pyrazolo[3,4-b]pyridin-5-yl]-3-(trifluoromethyl)benzamide] and CCN1C(=O)[C@@H](NC(=O)c2cccc(F)c2)[C@@H](c2ccc(F)cc2)c2c(C)nn(-c3ccccc3)c21 [RG-0013062, N-[(4S,5S)-7-ethyl-4-(4-fluorophenyl)-3-methyl-6-oxo-1-phenyl-1H,4H,5H,6H,7H-pyrazolo[3,4-b]pyridin-5-yl]-3-fluorobenzamide] are within 1.5-fold of each other in EC50: 2580 ± 247 nM for the first, 1810 ± 153 nM for the second.

Going from CCN1C(=O)[C@@H](NC(=O)c2cc(C)cc(F)c2)[C@@H](c2ccc(F)cc2)c2c(C)nn(-c3ccccc3)c21 [RG-0013053, N-[(4S,5S)-7-ethyl-4-(4-fluorophenyl)-3-methyl-6-oxo-1-phenyl-1H,4H,5H,6H,7H-pyrazolo[3,4-b]pyridin-5-yl]-3-fluoro-5-methylbenzamide] to CCN1C(=O)[C@@H](NC(=O)c2cccc(S(C)(=O)=O)c2)[C@@H](c2ccc(F)cc2)c2c(C)nn(-c3ccccc3)c21 [RG-0013977, N-[(4S,5S)-7-ethyl-4-(4-fluorophenyl)-3-methyl-6-oxo-1-phenyl-1H,4H,5H,6H,7H-pyrazolo[3,4-b]pyridin-5-yl]-3-methanesulfonylbenzamide], the EC50 rises from 2330 ± 105 nM to greater than 36500 nM.

First: C#CCOCc1nn(-c2ccccc2)c2c1[C@H](c1ccc(F)cc1)[C@H](NC(=O)c1cccc(C)c1)C(=O)N2CC [RG-0013055, N-[(4S,5S)-7-ethyl-4-(4-fluorophenyl)-6-oxo-1-phenyl-3-[(prop-2-yn-1-yloxy)methyl]-1H,4H,5H,6H,7H-pyrazolo[3,4-b]pyridin-5-yl]-3-methylbenzamide]
Second: C=CC(=O)NCc1nn(-c2ccccc2)c2c1[C@H](c1ccc(F)cc1)[C@H](NC(=O)c1cccc(C)c1)C(=O)N2CC [RG-0013063, N-[(4S,5S)-7-ethyl-4-(4-fluorophenyl)-6-oxo-1-phenyl-3-[(prop-2-enamido)methyl]-1H,4H,5H,6H,7H-pyrazolo[3,4-b]pyridin-5-yl]-3-methylbenzamide]
The EC50 of the first is 1.7-fold higher: 168 ± 8.1 nM for the first, 96.8 ± 7.21 nM for the second.

Compared with CCN1C(=O)[C@@H](NS(=O)(=O)c2cccc(C(F)(F)F)c2)[C@@H](c2ccc(F)cc2)c2c(C)nn(-c3ccccc3)c21 [RG-0013808, N-[(4S,5S)-7-ethyl-4-(4-fluorophenyl)-3-methyl-6-oxo-1-phenyl-1H,4H,5H,6H,7H-pyrazolo[3,4-b]pyridin-5-yl]-3-(trifluoromethyl)benzene-1-sulfonamide], CCN1C(=O)[C@@H](NC(=O)c2cccc(C(F)(F)F)c2)[C@@H](c2ccc(F)cc2)c2c(COC(C)=O)nn(-c3ccccc3)c21 [RG-0013839, [(4S,5S)-7-ethyl-4-(4-fluorophenyl)-6-oxo-1-phenyl-5-[3-(trifluoromethyl)benzamido]-1H,4H,5H,6H,7H-pyrazolo[3,4-b]pyridin-3-yl]methyl acetate] is lower in EC50: greater than 36500 nM for the first, 116 ± 13.2 nM for the second.

Going from CCN1C(=O)[C@@H](N)[C@@H](c2ccc(F)cc2)c2c(C)nn(-c3ccccc3)c21 [RG-0013837, (4S,5S)-5-amino-7-ethyl-4-(4-fluorophenyl)-3-methyl-1-phenyl-1H,4H,5H,6H,7H-pyrazolo[3,4-b]pyridin-6-one] to CCN1C(=O)[C@@H](NC(=O)c2cccc([N+](=O)[O-])c2)[C@@H](c2ccc(F)cc2)c2c(C)nn(-c3ccccc3)c21 [RG-0013844, N-[(4S,5S)-7-ethyl-4-(4-fluorophenyl)-3-methyl-6-oxo-1-phenyl-1H,4H,5H,6H,7H-pyrazolo[3,4-b]pyridin-5-yl]-3-nitrobenzamide], the EC50 falls from greater than 36500 nM to 1980 ± 134 nM.

With CCN1C(=O)[C@@H](NC(=O)c2cccc(Oc3ccccc3)c2)[C@@H](c2ccc(F)cc2)c2c(C)nn(-c3ccccc3)c21 [RG-0013976, N-[(4S,5S)-7-ethyl-4-(4-fluorophenyl)-3-methyl-6-oxo-1-phenyl-1H,4H,5H,6H,7H-pyrazolo[3,4-b]pyridin-5-yl]-3-phenoxybenzamide] the EC50 was 5930 ± 606 nM.
